From US10889748B2, “Process for preparing dibenzylamine quaternary ammonium salt high-temperature resistant corrosion inhibitor and applications thereof” (Southwest Petroleum University, priority 2018, dated 2021)

Experiments:
[1] = Determination of water solubility of corrosion inhibitors in 20% hydrochloric acid solution; assay type: physicochemical; conditions: 0.1 g corrosion inhibitor in 200 mL of 20% hydrochloric acid solution
Description: (§1) The process is as follows: weigh […] of the corrosion inhibitor of the present invention, and dissolve in 200 mL of 20% hydrochloric acid solution, respectively, stir and observe its dissolution. Prepare 20% hydrochloric acid solution system adding with iron ion stabilizer citric acid, clay stabilizer potassium chloride and discharge aiding agent OP-10 or fluorocarbon surfactant, respectively, and then weigh 0.1 g of the corrosion inhibitor of the present invention and add them to the 20% hydrochloric acid solution system, to observe the compatibility.

[2] = Compatibility with 20% hydrochloric acid system containing iron ion stabilizer, clay stabilizer and discharge aiding agent; assay type: physicochemical; conditions: 0.1 g in 20% hydrochloric acid system with citric acid, potassium chloride and OP-10 or fluorocarbon surfactant; 90° C.
Description: as §1, with “The water solubility of the corrosion inhibitor prepared by Embodiments 1 to 4 and its compatibility with the system containing the iron ion stabilizer, clay stabilizer and discharge aiding agent under 90° C. are determined. The” for “The”

[3] = 4 h corrosion test at 90° C. in 20% hydrochloric acid; conditions: P110 carbon steel, 1000 ppm inhibitor
Description: The corrosion inhibition performance of corrosion inhibitors in the embodiments 1 to 4 is determined by a 4 h corrosion test at 90° C. using 20% hydrochloric acid as a corrosive medium and P110 carbon steels. The amount of corrosion inhibitors is 1000 ppm.

Compound | Water solubility and appearance [1] | Compatibility [2] | Corrosion rate [3] [gm^−2h^−1] | Inhibition rate [3] [%]
OC(C[N+]1(Cc2ccc3ccccc3c2)CCOCC1)C[N+](Cc1ccccc1)(Cc1ccccc1)Cc1ccc2ccccc2c1 (stereo not drawn) [Embodiment 1] | Soluble colorless | Uniform and transparent, | 34.87 | 95.18
OC(C[N+](Cc1ccccc1)(Cc1ccccc1)Cc1ccccc1)C[N+]1(Cc2ccccc2)C=Cc2ccccc21 (stereo not drawn) [Embodiment 2] | Soluble colorless | Uniform and transparent, | 45.79 | 93.68
CCCCCC[N+](Cc1ccccc1)(Cc1ccccc1)CC(O)C[N+](CCCCCC)(Cc1ccccc1)CC(O)C[N+](CCCCCC)(Cc1ccccc1)Cc1ccccc1 (stereo not drawn) [Embodiment 3] | Soluble colorless | Uniform and transparent, | 29.86 | 95.88
